From patent publication US12343347B2 (Biohaven Pharmaceutical Holding Company Ltd., priority 2012, dated 2025)

Columns and labels:
Format in all cases: in vitro ADME
[1] = Plasma stability in fresh mouse plasma; details: 1 uM, 37° C.
Description: (§1) Plasma Stability: Assessment of plasma stability was carried out by individual incubations of drug candidates in fresh mouse or human control plasma at a concentration of 1 uM for 1 hour at 37° C. After which, the samples were de-proteinized by addition of 2 volumes of acetonitrile containing 0.1% formic acid and internal standard, vortex mixed for 2 minutes and centrifuged at 4000 rpm for 10 minutes to pellet precipitated protein. The resulting supernatant containing the drug candidates was diluted 5-fold with water containing 0.1% formic acid and submitted to LC-MS/MS analysis. All determinations were done in triplicate. […]
(§2) LC-MS/MS Analysis: An aliquot from each incubation was analyzed by LC-MS/MS with SRM detection in the positive ionization mode using an ABSciex API 5500 QTrap Mass Spectrometer interfaced via the ABSciex Turbo V IonSpray source (ESI) to an Eksigent ExpressHT LC system. […] A fast gradient, from 15 to 85% organic in 2.5 minutes, with run time of 5.0 minutes, and flow rate of 50 uL/min was utilized. Peak areas were integrated using MultiQuant v2.0 software from ABSciex.

[2] = Metabolic stability in pooled human liver microsomes; details: human liver microsomes 0.5 mg/mL, 1 uM, NADPH, 37° C.
Description: (§3) Metabolic Stability: In vitro metabolic stability was determined in pooled mouse or human liver microsomes (BD Gentest) at a protein concentration of 0.5 mg/mL in reaction buffer (100 mM KH2PO4, pH 7.4 and 12 mM MgCl2). Each drug candidate was added to a final concentration of 1 uM. This mixture was pre-warmed to 37° C. for 10 minutes prior to starting the reaction with the addition of β-Nicotinamide adenine dinucleotide 2′-phosphate reduced (NADPH) to a final concentration of 1 mM. A parallel incubation lacking NADPH served as the control. After incubation for 30 min at 37° C., the reactions were quenched by the addition of acetonitrile containing 0.1% formic acid and internal standard, vortex mixed for 2 minutes and centrifuged at 4000 rpm for 10 minutes to pellet the precipitated protein. The resulting supernatant containing the drug candidate and its potential metabolites was diluted 5-fold with water containing 0.1% formic acid and submitted to LC-MS/MS analysis. […]
as §2

[3] = Plasma stability in fresh human plasma; details: 1 uM, 37° C.
Description: as §1, §2

[4] = Metabolic stability in pooled mouse liver microsomes; details: mouse liver microsomes 0.5 mg/mL, 1 uM, NADPH, 37° C.
Description: as §3, §2

[5] = Stability in Simulated Intestinal Fluid (SIF); details: SIF:acetonitrile 9:1, 0.01 mg/mL, 37° C.
Description: (§4) Stability in Simulated Gastric Fluid (SGF) and Simulated Intestinal Fluid (SIF). Procedure from Baudy et. al. (J. Med. Chem. 2009, 52, 771-778) used. The physiological stability of pro-drugs was determined by examining the stability of the compound in SGF, and SIF at 37° C. The compounds were prepared in a 9:1 mixture of the appropriate test component (SGF, SIF) and acetonitrile to a final concentration of 0.01 mg/mL. The samples were thoroughly mixed and maintained at 37° C. Each sample was injected consecutively onto an Agilent 1100 system (Luna C18, 3 μm, 50 mm×3 mm; 1 mL/min; mobile phase of 0.1% trifluoroacetic acid in water/0.1% trifluoroacetic acid in acetonitrile) after a 3 h period. The percent remaining of pro-drug was calculated by comparing the area of pro-drug compound versus riluzole generated. The identities of the parent compounds and conversion products were confirmed by LC/MS.

[6] = Stability in Simulated Gastric Fluid (SGF); details: SGF:acetonitrile 9:1, 0.01 mg/mL, 37° C.
Description: as §4

Row | Plasma Stability mouse (1 hour), percent of pro-drug metabolized to riluzole [1] [%] | Metabolic Stability human (30 minutes), percent of pro-drug metabolized to riluzole [2] [%] | Plasma Stability Human (1 hour), percent of pro-drug metabolized to riluzole [3] [%] | Metabolic Stability mouse (30 minutes), percent of pro-drug metabolized to riluzole [4] [%] | SIF (3 hours), percent of pro-drug metabolized to riluzole [5] [%] | SGF (3 hours), percent of pro-drug metabolized to riluzole [6] [%] | SMILES
1 | 11 | 7 | 3 | 4 |  |  | NCC(=O)Nc1nc2ccc(OC(F)(F)F)cc2s1 [Cpd 1, 2-Amino-N-(6-trifluoromethoxy-benzothiazol-2-yl)-acetamide]
2 | 36 | 4 | 15 | 10 | 50 | 0 | C[C@@H](N)C(=O)Nc1nc2ccc(OC(F)(F)F)cc2s1 [Cpd 2, (R)-2-Amino-N-(6-trifluoromethoxy-benzothiazol-2-yl)-propionamide]
3 | 47 | 18 | 6 | 12 | 0 | 3 | N[C@H](Cc1ccccc1)C(=O)Nc1nc2ccc(OC(F)(F)F)cc2s1 [Cpd 4, (R)-2-Amino-3-phenyl-N-(6-trifluoromethoxy-benzothiazol-2-yl)-propionamide]
4 | 25 | 0 | 3 | 24 |  |  | N[C@H](COCc1ccccc1)C(=O)Nc1nc2ccc(OC(F)(F)F)cc2s1 [Cpd 5, (R)-2-Amino-3-benzyloxy-N-(6-trifluoromethoxy-benzothiazol-2-yl)-propionamide]
5 | 28 | 0 | 10 | 1 | 50 | 0 | C[C@H](N)C(=O)Nc1nc2ccc(OC(F)(F)F)cc2s1 [Cpd 7, (S)-2-Amino-N-(6-trifluoromethoxy-benzothiazol-2-yl)-propionamide]
6 | 0 | 0 | 7 | 2 |  |  | N[C@@H](Cc1ccccc1)C(=O)Nc1nc2ccc(OC(F)(F)F)cc2s1 [Cpd 9, (S)-2-Amino-3-phenyl-N-(6-trifluoromethoxy-benzothiazol-2-yl)-propionamide]
7 |  |  |  |  |  | 0 | CCCCCCOC(=O)Nc1nc2ccc(OC(F)(F)F)cc2s1 [Cpd 17, (6-Trifluoromethoxy-benzothiazol-2-yl)-carbamic acid hexyl ester]
8 |  |  |  |  | 60 | 0 | O=C(CCC(=O)Nc1nc2ccc(OC(F)(F)F)cc2s1)NCCN1CCOCC1 [Cpd 24, N-(2-Morpholin-4-yl-ethyl)-N′-(6-trifluoromethoxy-benzothiazol-2-yl)-succinamide]
9 |  |  |  |  | 50 | 0 | NCC1(CC(=O)Nc2nc3ccc(OC(F)(F)F)cc3s2)CCCCC1 [Cpd 29, 2-(1-Aminomethyl-cyclohexyl)-N-(6-trifluoromethoxy-benzothiazol-2-yl)-acetamide]
